Measurements published in article PMC12858405, “Ideal efficacy photoswitching for chromocontrol of TRPC4/5 channel functions in live tissues” (Nature Chemical Biology, 2026).

Assay: PSS E/Z ratios by HPLC
Type: physicochemical
Settings: for PSS % E at 330 nm / PSS % E at 340 nm / PSS % E at 350 nm / PSS % E at 360 nm / PSS % E at 370 nm / PSS % E at 380 nm / PSS % E at 390 nm / PSS % E at 400 nm / PSS % E at 410 nm / PSS % E at 420 nm / PSS % E at 430 nm / PSS % E at 440 nm / PSS % E at 450 nm / PSS % E at 460 nm / PSS % E at 470 nm / PSS % E at 480 nm / PSS % E at 490 nm / PSS % E at 500 nm / PSS % Z at 330 nm / PSS % Z at 340 nm / PSS % Z at 350 nm / PSS % Z at 360 nm / PSS % Z at 370 nm / PSS % Z at 380 nm / PSS % Z at 390 nm / PSS % Z at 400 nm / PSS % Z at 410 nm / PSS % Z at 420 nm / PSS % Z at 430 nm / PSS % Z at 440 nm / PSS % Z at 450 nm / PSS % Z at 460 nm / PSS % Z at 470 nm / PSS % Z at 480 nm / PSS % Z at 490 nm / PSS % Z at 500 nm: monochromator, HPLC integration (296 nm)
Protocol: UV-VIS. UV-Vis spectra were recorded on an Agilent Cary 60 UV-Vis spectrophotometer using 1 cm quartz or PMMA cuvettes. All photoisomerisations were performed at room temperature in non-degassed solvents unless stated differently. Samples were irradiated with either a CoolLED pE-4000 or Polycon V monochromator (TILL Photonics, Gräfelfing, Germany) by shining from the […]
differently, all measurements were performed at a default concentration of 20 μM. Dark state refers […]
methods followed standard practices39–41. All-E and PSS spectra are shown in Supplementary […]
HPLC for PSS E/Z ratios. Analytical HPLC was performed on an Agilent 1200 SL with (a) a binary pump able to deliver H2O:MeCN eluent mixtures containing 0.1% formic acid at a 1 mL/min flow rate [for PSS measurements of final compounds, only MeCN was used], (b) YMC Carotenoid 5 µm, […]
(100 µM, MeCN) in HPLC vials were irradiated for at least 6 min from top with the monochromator […]
separate well); PSS ratio was then determined by integrating the signal at an isosbestic region

Structure (SMILES) | PSS %E around 410 nm | PSS %Z around 360 nm [%] | PSS % E at 330 nm [%] | PSS % E at 340 nm [%] | PSS % E at 350 nm [%] | PSS % E at 360 nm [%] | PSS % E at 370 nm [%] | PSS % E at 380 nm [%] | PSS % E at 390 nm [%] | PSS % E at 400 nm [%] | PSS % E at 410 nm [%] | PSS % E at 420 nm [%] | PSS % E at 430 nm [%] | PSS % E at 440 nm [%] | PSS % E at 450 nm [%] | PSS % E at 460 nm [%] | PSS % E at 470 nm [%] | PSS % E at 480 nm [%] | PSS % E at 490 nm [%] | PSS % E at 500 nm [%] | other results
Cn1c(=O)n(CCCO)c(=O)c2c1nc(Oc1ccc(N=Nc3ccccc3)c(Cl)c1)n2Cc1ccc(Cl)cc1 [AzHC] | ~ 82% | 95 | 21 | 6 | 4 | 4 | 7 | 23 | 52 | 74 | 81 | 80 | 79 | 76 | 72 | 68 | 63 | 59 | 55 | 52 | PSS % Z at 330 nm: 79%; PSS % Z at 340 nm: 94%; PSS % Z at 350 nm: 96%; PSS % Z at 360 nm: 96%; PSS % Z at 370 nm: 93%; PSS % Z at 380 nm: 78%; PSS % Z at 390 nm: 48%; PSS % Z at 400 nm: 26%; PSS % Z at 410 nm: 19%; PSS % Z at 420 nm: 20%; PSS % Z at 430 nm: 21%; PSS % Z at 440 nm: 24%; PSS % Z at 450 nm: 28%; PSS % Z at 460 nm: 32%; PSS % Z at 470 nm: 37%; PSS % Z at 480 nm: 41%; PSS % Z at 490 nm: 45%; PSS % Z at 500 nm: 48%
Cn1c(=O)n(CCCO)c(=O)c2c1nc(Oc1ccc(N=Nc3ccccc3)c(OC(F)(F)F)c1)n2Cc1ccc(Cl)cc1 [AzPico] | ~ 82% | 95 | 16 | 8 | 5 | 5 | 11 | 23 | 38 | 79 | 84 | 84 | 82 | 80 | 77 | 74 | 70 | 67 | 64 | 61 | PSS % Z at 330 nm: 84%; PSS % Z at 340 nm: 92%; PSS % Z at 350 nm: 95%; PSS % Z at 360 nm: 95%; PSS % Z at 370 nm: 89%; PSS % Z at 380 nm: 77%; PSS % Z at 390 nm: 62%; PSS % Z at 400 nm: 21%; PSS % Z at 410 nm: 16%; PSS % Z at 420 nm: 16%; PSS % Z at 430 nm: 18%; PSS % Z at 440 nm: 20%; PSS % Z at 450 nm: 23%; PSS % Z at 460 nm: 27%; PSS % Z at 470 nm: 30%; PSS % Z at 480 nm: 33%; PSS % Z at 490 nm: 36%; PSS % Z at 500 nm: 39%
